Data reported in patent US6753021B2, “Biologically active chloroform fraction of an extract obtained from a mangrove plant Salvadora persica L” (Council of Scientific & Industrial Research, priority 2001, dated 2004).

System: isolated guinea pig ileum
Test: Anti-cholinergic activity: acetylcholine-induced contraction of isolated guinea pig ileum
Conditions: in words; isolated compounds were tested only on isolated guinea pig ileum
Method: Female, virgin guinea pigs weighing around 300 to 350 g, housed under uniform husbandry conditions (temperature 25±1° C.) were used. The animals were starved 24 hours prior to the experiment, only water was provided ad libitum.
The isolated guinea pig ileum was used to study the anti-spasmodic, anti-cholinergic, and anti-arrhythmic activity of the active fractions.
In particular, the five compounds isolated were tested only on isolated guinea pig ileum. The longitudinal ileal muscle from a freshly killed guinea pig was suspended in an organ bath of 10 ml capacity, filled with Tyrode solution, and aerated with air.
All of these compounds were dissolved in 1000 ml of distilled water.
Two to four doses of acetylcholine were added to the bath to obtain uniform amplitude with a contact period of 30 seconds, the contractions of which were recorded on a polygraph. The five compounds isolated were tested in doses of 196 and 392×10^−6 moles per ml of bath concentration.

| Compound | biological activity shown by the extract, in purified compounds |
| --- | --- |
| C=C(C)[C@@H]1CC[C@]2(CO)CC[C@]3(C)[C@H](CC[C@@H]4[C@@]5(C)CC[C@H](O)C(C)(C)[C@@H]5CC[C@]43C)[C@@H]12 [betulin] | maintained |
| CCCCCCCCCCCCCCCC(=O)OC [methyl palmitate] | maintained |
